According to patent US20250188110A1, “SPECIFIC SMALL MOLECULE INHIBITORS THAT BLOCK KMT9 METHYLTRANSFERASE ACTIVITY AND FUNCTION” (ALBERT-LUDWIGS-UNIVERSITÄT FREIBURG, priority 2021, published 2025):

Experiments:
[1] = molecular target: T1, KMT9 (Homo sapiens, UniProt Q9Y5N5); test: KMT9 methyltransferase inhibition assay, 3H-SAM scintillation (entries 1-154); assay type: biochemical; conditions: entries 1-154: 3H-SAM assay, 25 nM KMT9, 5 μM ETF1
T1 sequence (Q9Y5N5 1-214): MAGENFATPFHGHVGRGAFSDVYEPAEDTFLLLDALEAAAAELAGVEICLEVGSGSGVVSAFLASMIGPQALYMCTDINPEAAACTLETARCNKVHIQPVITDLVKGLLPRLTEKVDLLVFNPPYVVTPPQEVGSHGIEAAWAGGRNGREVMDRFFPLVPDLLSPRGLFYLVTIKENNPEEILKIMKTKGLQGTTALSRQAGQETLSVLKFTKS
T1 sequence (Q9UI30 1-120 isoform Q9UI30-2 partner): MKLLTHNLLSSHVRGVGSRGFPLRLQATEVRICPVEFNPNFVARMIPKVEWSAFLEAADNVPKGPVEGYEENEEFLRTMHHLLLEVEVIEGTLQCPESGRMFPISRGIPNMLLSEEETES
Method in brief: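 Final 25 nM KMT9, 5 μM ETF1 (residues 140-275), 0.3 μM 3H-SAM plus 0.7 μM SAM in pH 8.5 BTP buffer, 2 h at 30° C. TCA-quenched, filter-washed, methylation counted by scintillation; % inhibition vs DMSO and no-enzyme controls, IC50 from four-parameter fit.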

[2] = molecular target: T1, KMT9; test: KMT9 thermal shift assay (SyproOrange); assay type: binding; conditions: ΔTm; 500 µM compound, 2 μM KMT9, 5X SO; read-out: Thermal shift
Method in brief: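 Recombinant KMT9 was incubated with compound and SyproOrange at 25° C in 50 mM BTP pH 8.5, 1 mM MgCl2, 1 mM DTT. It was then heated from 20° C to 95° C at 1° C per 15 s with fluorescence read each step. Tm came from a Boltzmann sigmoidal fit; ΔTm relative to DMSO control, binned in 5 K ranges.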

[3] = molecular target: T1, KMT9; test: Microscale thermophoresis (MST) KMT9 binding; conditions: microscale thermophoresis, His-tag labelled KMT9 (20 nM); read-out: MST
Method in brief: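 His-tagged KMT9 (20 nM), RED-Tris-NTA labelled, titrated with varying compound concentrations in 25 mM HEPES pH 7.5, 100 mM NaCl, 1 mM DTT, 0.05% Tween. MST at 40% MST and 100% LED power, Nano-RED excitation; Kd binned A ≤10 nM, B 10–100, C 100–1000, D >1000 nM.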

| Structure (SMILES) | IC50 [1] [nM] | ΔTm at 500 µM [2] [°C] | Kd [3] [nM] |
| --- | --- | --- | --- |
| CNc1ncnc2c1ccn2[C@@H]1C[C@H](CNC(=O)C2CCCNC2)[C@@H](O)[C@H]1O (stereo partly drawn) [418 (289), N-(((1R,2R,3S,4R)-2,3-dihydroxy-4-(4-(methylamino)-7H-pyrrolo[2,3-d]pyrimidin-7-yl)cyclopentyl)methyl) piperidine-3-carboxamide] | > 10000 | ≤ 10 | > 1000 |
| CNc1ncnc2c1ccn2[C@@H]1C[C@H](COCCNCCc2ccccc2)[C@@H](O)[C@H]1O [419 (290), (1R,2S,3R,5R)-3-[4-(Methylamino)pyrrolo[2,3-d]pyrimidin-7-yl]-5-({2-[(2-phenylethyl)amino]ethoxy}methyl) cyclopentane-1,2-diol] | > 10000 | ≤ 10 | > 1000 |
| CNc1ncnc2c1ccn2[C@@H]1C[C@H](COCCCNCCc2ccccc2)[C@@H](O)[C@H]1O [420 (291), (1R,2S,3R,5R)-3-(4-(methylamino)-7H-pyrrolo[2,3-d]pyrimidin-7-yl)-5-((3-(phenethylamino)propoxy)methyl) cyclopentane-1,2-diol] | > 10000 | ≤ 10 | > 1000 |
| CNc1ncnc2c1ccn2[C@@H]1C[C@H](COCCCNCCc2cccc(Oc3ccccc3)c2)[C@@H](O)[C@H]1O [421 (292), (1R,2S,3R,5R)-3-(4-(Methylamino)-7H-pyrrolo[2,3-d]pyrimidin-7-yl)-5-((3-((3-phenoxyphenethyl)amino)propoxy)methyl) cyclopentane-1,2-diol] | > 10000 | ≤ 10 | > 1000 |
| CNc1ncnc2c1ccn2[C@@H]1C[C@H](/C=C/CCNCCc2ccccc2)[C@@H](O)[C@H]1O [422 (293), (1R,2S,3R,5R)-3-(4-(methylamino)-7H-pyrrolo[2,3-d]pyrimidin-7-yl)-5-((E)-4-(phenethylamino)but-1-en-1-yl) cyclopentane-1,2-diol] | > 10000 | ≤ 10 | > 1000 |
| CNc1ncnc2c1ccn2[C@@H]1C[C@H](CCCCNCCc2ccccc2)[C@@H](O)[C@H]1O [423 (294), (1R,2S,3R,5S)-3-(4-(methylamino)-7H-pyrrolo[2,3-d]pyrimidin-7-yl)-5-(4-(phenethylamino)butyl) cyclopentane-1,2-diol] | > 10000 | ≤ 10 | > 1000 |
| CNc1ncnc2c1ccn2[C@@H]1C[C@H](CCCCCNCCc2ccccc2)[C@@H](O)[C@H]1O [424 (295), (1R,2S,3R,5S)-3-(4-(Methylamino)-7H-pyrrolo[2,3-d]pyrimidin-7-yl)-5-(5-(phenethylamino)pentyl) cyclopentane-1,2-diol] | 1000 to 10000 | 10 to 15 | 100 to 1000 |
| CNc1ncnc2c1ccn2[C@@H]1C[C@H](/C=C/CCCNCCc2ccccc2)[C@@H](O)[C@H]1O [425 (296), (1R,2S,3R,5R)-3-(4-(methylamino)-7H-pyrrolo[2,3-d]pyrimidin-7-yl)-5-((E)-5-(phenethylamino)pent-1-en-1-yl) cyclopentane-1,2-diol] | > 10000 | ≤ 10 | > 1000 |
| CNc1ncnc2c1ccn2[C@@H]1C[C@H](C#CCNCCc2ccccc2)[C@@H](O)[C@H]1O [426 (297), (1R,2S,3R,5R)-3-[4-(methylamino)pyrrolo[2,3-d]pyrimidin-7-yl]-5-{3-[(2-phenylethyl)amino]prop-1-yn-1-yl}cyclopentane-1,2-diol] | > 10000 | ≤ 10 | > 1000 |
| CNc1ncnc2c1ccn2[C@@H]1C[C@H](CSCCCNCCc2ccccc2)[C@@H](O)[C@H]1O [427 (299), (1R,2S,3R,5S)-3-(4-(methylamino)-7H-pyrrolo[2,3-d]pyrimidin-7-yl)-5-(((3-(phenethylamino)propyl)thio)methyl) cyclopentane-1,2-diol] | 1000 to 10000 | ≤ 10 | > 1000 |
